Legend:
neurocytes = test: Cell survival of neurocytes after serum removal, with or without 0.1% 2-mercaptoethanol, 72 hours; format: cell-based, rat
Source text: A rat pregnant for […] was cervically dislocated to sacrifice the experimental animal and the abdomen of the experimental animal was excised in an U-shape to expose the uterus in which a fetus was located. Thereafter, the fetus was taken out from the uterus and then inserted into a fetus washing medium and then washed three times. Only the head of the fetus was cut and then inserted into the fetus washing medium to wash the head three times and then the cranium of the fetus was broken to separate the brain therefrom. A knife was used to cut the cortex of the brain and tissues of the cortex were thoroughly chopped, which were then collected in the already prepared fetus washing medium. After centrifuging at 400 g for 4 minutes, a supernatant was removed therefrom and then 0.025% of trypsin and 10 ml of DNase1 were added to the pellets to break the pellets. The mixture was stored in an incubator for 15 minutes.
Thereafter, 15 ml of a cell culture medium was added thereto again, centrifuged at 400 g for 4 minutes, a supernatant was removed therefrom to obtain pellets, which were washed twice with 6 ml of a washing medium (including DNase 1), and then centrifuged again at 400 g for 4 minutes. After the centrifugation, the supernatant solution was removed again to obtain pellets, 10 ml of the culture medium was added to the pellets and a mixture obtained therefrom was mixed with 10 ul of trypan blue to count the cells by using a hemocytometer. In a 24-well plate, 500 ul of the cells were seeded in each well and then cultured for 48 hours. Thereafter, the culture medium was removed from the well plate for stabilization, a new cell culture medium and 5 uM Ara-c (cytosine arabinoside, sigma, C1768) were added thereto, cultured for […], the culture medium was removed again after 24 hours, a new culture medium was added thereto, and then cultured in an incubator having conditions of […], 5% CO2, and a temperature of 37° C. for the next experiment.
In a 96-well plate, cells were inoculated at a density of 2×10^4 cells/well and in an amount of 200 ul for each well. In this regard, cell confluence was set to be about 70% to about 80%. After 24 hours, when the cells have stabilized, a 26 or 28 gauge needle was used to remove a pre-existing medium from the wells. […]

retinal neurocytes = test: Cell survival of retinal neurocytes, MTT assay, 72 hours, hypoxic conditions; format: cell-based, rat; conditions: for cell survival rate: normal culture = 100%
Protocol: Eyes of a […] rat were removed and retina of the eyes were separated and then put into solution 1. Retinal tissues were treated in trypsin at a temperature of 37° C. for 10 minutes and then centrifuged at 180 g for 5 minutes.
After centrifugation, a supernatant solution was discarded and all collected tissues were put into a stop solution. Aggregated tissues were disentangled by using a pipette and then centrifuged again at 180 g for 5 minutes. Separated cells were mixed with 10% FBS-MEM at a density of 1×10^6 cells/mL. 100 ul of cells were inoculated in each well of a 96-well plate and then cultured for 24 hours.
Thereafter, the culture medium was removed from the well plate for stabilization, a new culture medium and 5 uM Ara-c (cytosine arabinoside, sigma, C1768) were added thereto, cultured for 48 hours, the culture medium was removed again after 48 hours, a new culture medium was added thereto, and then cultured in an incubator having conditions of […], 5% CO2, and a temperature of 37° C. for the next experiment. Thereafter, the culture medium was removed for stabilization after another 48 hours, then a new culture medium was added thereto, and then cultured in an incubator under conditions of […], 5% CO2, and a temperature of 37° C. for the next experiment.
Cells were seeded in a 96-well plate at a density of 2×10^4 cells/well and 200 ul for each well. In this regard, cell confluence was set to be about 70% to about 80%. After 24 hours, when the cells have stabilized, a 26 gauge or 28 gauge needle was used to remove a preexisting medium from the wells. 200 ul of PBS free of serum and nutrients was added to each well, the wells were divided into EPO treatment groups and MKX-2 treatment groups, which were further divided into experimental groups according to concentrations of 0 nM, 0.1 nM, 1 nM, 10 nM, 100 nM, and 1000 nM and then treated with a drug for 72 hours under hypoxic conditions, and surviving […] neurocytes were quantitatively analyzed in an […]. The EPO used was an Eporon injection (Dong-A Pharmaceuticals, Korea). All experimental groups for each concentration included 7 wells. After a certain treatment time, 3-[4,5-dimethylthiazol-2-yl]-2,5-diphenyl tetrazolium bromide (MTT, Sigma, M2128) that was dissolved in a phosphate buffered saline (PBS) and then sterilization filtered by using a membrane filter having a thickness of 0.22 um was added to each well in an amount of 100 ul at a concentration of 1 mg/ml. In this regard, an MIT reagent was used after wrapping the MTT reagent with a foil sheet to block it from light. […]
Thereafter, an ELISA reader was used to measure an O.D. value at 570 nm for quantitatively analysis. […]

Substance: EPO: erythropoietin; the EPO used was an Eporon injection (Dong-A Pharmaceuticals, Korea)
- cell survival rate (neurocytes; EPO 1 IU/ml, serum removed, no 2-mercaptoethanol, 72 hours, normal culture = 100%): 41.64%
- cell survival rate (neurocytes; EPO 1 U/ml, after exposure to 0.1% 2-mercaptoethanol for 18 hours): 6.98%
- cell survival rate (neurocytes; EPO 10 IU/ml, serum removed, no 2-mercaptoethanol, 72 hours, normal culture = 100%): 48.57%
- cell survival rate (neurocytes; EPO 10 U/ml, after exposure to 0.1% 2-mercaptoethanol for 18 hours): 11.70%
- increase of cell survival rate compared to 0 nM (retinal neurocytes; 0.1 nM and 1 nM): without any statistical significance
- cell survival rate (retinal neurocytes; 10 nM): 128.03%
- cell survival rate (retinal neurocytes; 100 nM): 127.6%
- cell survival rate (retinal neurocytes; 1000 nM): 124.77%

From patent US20140378378A1, “ERYTHROPOIETIN-DERIVED PEPTIDE AND USE THEREFOR” (priority 2011, published 2014)
